For experiment [1], the target named is T1, ATP-dependent translocase ABCB1 (Homo sapiens, UniProt P08183). Briefly: TP_TRANSPORTER: inhibition of Rhodamine 123 transport in 3T3-G185 cells. Format: functional, cell-based.
The target in experiment [2] is T1, ATP-dependent translocase ABCB1. Briefly: TP_TRANSPORTER: inhibition of Daunorubicin transport in 3T3-G185 cells. Format: functional, cell-based.

Structures are written as SMILES.

T1 sequence (P08183 whole entry): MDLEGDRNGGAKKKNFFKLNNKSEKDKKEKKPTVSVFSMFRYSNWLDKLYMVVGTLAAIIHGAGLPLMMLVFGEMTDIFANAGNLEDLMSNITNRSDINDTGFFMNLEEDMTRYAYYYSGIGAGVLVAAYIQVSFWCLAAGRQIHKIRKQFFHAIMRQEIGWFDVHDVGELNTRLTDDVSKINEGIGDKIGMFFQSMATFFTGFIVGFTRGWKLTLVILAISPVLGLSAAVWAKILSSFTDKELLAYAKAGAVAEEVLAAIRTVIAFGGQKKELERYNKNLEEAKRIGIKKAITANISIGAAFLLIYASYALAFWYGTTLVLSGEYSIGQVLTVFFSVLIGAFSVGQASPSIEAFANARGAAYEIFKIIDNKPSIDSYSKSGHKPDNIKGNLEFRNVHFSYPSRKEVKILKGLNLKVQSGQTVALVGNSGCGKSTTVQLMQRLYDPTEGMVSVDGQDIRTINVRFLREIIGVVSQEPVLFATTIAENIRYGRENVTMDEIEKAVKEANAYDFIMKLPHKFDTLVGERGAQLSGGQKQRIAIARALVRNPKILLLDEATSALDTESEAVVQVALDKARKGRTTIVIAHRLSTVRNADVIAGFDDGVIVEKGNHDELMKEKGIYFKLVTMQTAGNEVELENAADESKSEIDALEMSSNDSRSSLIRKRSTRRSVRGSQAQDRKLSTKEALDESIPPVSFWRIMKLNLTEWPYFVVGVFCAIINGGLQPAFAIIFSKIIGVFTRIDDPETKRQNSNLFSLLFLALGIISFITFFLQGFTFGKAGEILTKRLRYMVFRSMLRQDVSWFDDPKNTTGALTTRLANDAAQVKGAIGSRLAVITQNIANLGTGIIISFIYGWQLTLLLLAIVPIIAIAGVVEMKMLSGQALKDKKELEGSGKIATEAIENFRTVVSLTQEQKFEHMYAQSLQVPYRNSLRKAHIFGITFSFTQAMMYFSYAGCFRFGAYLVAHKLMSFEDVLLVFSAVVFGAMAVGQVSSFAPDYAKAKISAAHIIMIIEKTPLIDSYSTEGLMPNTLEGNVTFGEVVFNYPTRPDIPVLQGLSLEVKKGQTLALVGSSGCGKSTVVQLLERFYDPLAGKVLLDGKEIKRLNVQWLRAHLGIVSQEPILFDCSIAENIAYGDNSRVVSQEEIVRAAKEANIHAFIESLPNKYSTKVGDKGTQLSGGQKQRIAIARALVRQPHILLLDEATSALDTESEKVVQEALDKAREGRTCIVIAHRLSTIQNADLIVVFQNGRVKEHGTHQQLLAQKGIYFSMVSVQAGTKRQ

Turning to `CC(C)c1c(C(=O)Nc2ccccc2)c(-c2ccccc2)c(-c2ccc(F)cc2)n1CC[C@@H](O)C[C@@H](O)CC(=O)O` [ATORVASTATIN], the values for the 50% inhibitory concentration (IC50) in experiment [1] and in experiment [2] were 307 µM and 271 µM, respectively.

Values taken from ChEMBL document CHEMBL2073743, “HMG-CoA reductase inhibitors (statins) characterized as direct inhibitors of P-glycoprotein” (Pharm Res, 2001).
